In data set [1] the test system is Streptococcus mutans MT 8148. Put plainly: Acid production by Streptococcus mutans (Example 9), strain MT 8148. Type of data set: cell-based. The conditions noted are these: 10 ml of 5% solution added to 2 ml cell suspension, 37° C., FIG. 6. On the procedure: (§1) Dental caries causative bacteria (Streptococcus mutans) MT 8148 and 6715 strains provided by a microbial lineage storage laboratory of The Institute of Physical Chemical Research (Riken) were cultured on a brain heart infusion broth medium overnight and then cells were collected by centrifugation. The cells were washed twice with a phosphate buffered (5 mM) physiological saline solution (pH 7.0) and then suspended in the same saline solution. Ten milliliters each of 5% DFA III, sorbitol, palatinose, xylitol, and sucrose solutions were added to 2 ml of this concentrated cell suspension. Immediately, reaction was carried out at 37° C. and then change with time in pH of each reaction mixture was measured.

Data set [2] in a line: Diuretic test using DFA III. Type of data set: in vivo, human. From the text:
DFA III was made into granules to make a granular food product. Since granulation was possible without excipient, the DFA content was 100%. Six healthy males were given with 1 g/day of this granular food product together with water consecutively for 1 week in the first period of the test. Then, after a week of the washout period, the same 6 healthy subjects were given with 1 g/day of sugar together with water consecutively for 1 week in the second period of the test.
During the test periods, all subjects lived under the same environment, doing the same level of exercise and taking the same amount of diet and drinking water. The whole volume of urine excreted during the test periods was recovered and the volume was measured to obtain a daily average urine volume to compare the two test periods.

The subject of data set [3] is small intestines (jejunum and ileum) and large intestines (cecum and colon) mucous membrane specimen. Put plainly: Magnesium absorption in Ussing chamber. More on the design: species or system rat. The conditions noted are these: DFA III 0, 1, 10, 100 mM on mucous membrane side, 37° C., 30 minutes, FIG. 1. The procedure:
Acceleration of magnesium absorption by DFA III was confirmed by using an Ussing chamber as follows.
In this experiment, 7 to 8 weeks old Sprague-Dawley male rats (with an average body weight of about 260 g) were used.
The rats were purchased at 6 weeks of age (Japan SLC) and fed on a commercial solid feed (CE-2, Japan CLEA) until the start of the experiment.
On the day of the experiment, rats were injected intraperitoneally with sodium pentobarbital and the small intestines (cejunum and ileum) and the large intestines (cecum and colon) were extracted under the anaesthetization. Contents of each of the intestines were removed, the intestines were opened, and the serous membrane and the layer of smooth muscle were peeled off to prepare a specimen comprising the mucous membrane and submucosal tissue, which was then loaded onto an Ussing chamber (with an effective area of 0.67 cm^2).
Separately, a buffer solution for the mucous membrane side and a buffer solution for serous membrane side were prepared. The buffer solution for mucous membrane side was basically comprised of the following ingredients. […]
After the incubation was completed, the solution of serous membrane side was recovered and the Mg concentration in the solution was measured using a commercial kit (Wako Pure Chemicals). […]

The test system of data set [4] is serum osteocalcin. Put plainly: Bone formation in human: serum osteocalcin, DFA III with calcium lactate (Example 4). Type of data set: in vivo. The conditions noted are these: 3 g DFA III and 0.77 g calcium lactate 3 times a day for 1 week vs calcium lactate alone; six healthy adult males; FIG. 4. On the procedure: Six healthy adult males were administered with 3 g of DFA III and 0.77 g of calcium lactate or 0.77 g of placebo (calcium lactate) 3 times a day for 1 week to study the change in serum osteocalcin concentration.

Data set [5] is described as follows: Effectiveness on defecation in human. The conditions noted are these: 3 g once a day for one month; for Feeling of defecation: Much better (number of subjects) / Feeling of defecation: No change (number of subjects) / Feeling of defecation: Slightly better (number of subjects) / Feeling of defecation: Slightly worse (number of subjects) / Feeling of defecation: Worse (number of subjects) / Stool properties, change observed: Constipation (worse after ingestion; number of subjects) / Stool properties, change observed: Normal stool (number of subjects) / Stool properties, change observed: Soft stool (number of subjects) / Stool properties, change observed: Solid stool (number of subjects) / Stool properties: No change (number of subjects): fifty adults; for Stool properties, change observed: Diarrhea (number of subjects): fifty adults with tendency of constipation. Type of data set: in vivo. On the procedure:
Fifty adults who were healthy but aware of their poor stool frequency and tendency of constipation were given with 3 g of DFA III, 3 g of melibiose or 3 g of placebo (starch) once a day for one month. The defecation condition was recorded and stool properties and feeling of defecation were studied.

For data set [6], the system named is serum osteocalcin. Put plainly: Bone formation in human: serum osteocalcin, DFA III alone (Example 6). Conditions: 3 g DFA III 3 times a day for 2 weeks. The format is in vivo. The procedure:
Twenty-three healthy adult males and females on normal diet were administered with 3 g of DFA III 3 times a day for 2 weeks to study the change in serum osteocalcin concentration.

Data set [7] deals with small intestines (jejunum and ileum) and large intestines (cecum and colon) mucous membrane specimen. Put plainly: Copper absorption in Ussing chamber. More on the design: species or system rat. Conditions: DFA III 0 to 100 mM, FIG. 3.
For data set [8] the test system is unchanged. Put plainly: Zinc absorption in Ussing chamber. Also on record: species or system rat. Conditions: DFA III 0 to 100 mM, FIG. 2.
Data set [9] concerns Streptococcus mutans MT 8148. Put plainly: Acid production by Streptococcus mutans, DFA and palatinose (Example 10), strain MT 8148. The format is cell-based. Conditions: 10 ml of 1% solution added to 2 ml cell suspension, 37° C., FIG. 7. The procedure: as §1, with “a 1% palatinose solution, 1%” for “5%”, “a 1% palatinose solution with 1% DFA III added” for “sorbitol, palatinose, xylitol, and sucrose solutions”

For a further data set, the system named is mice. Put plainly: Acute toxicity test in mice. Type of data set: in vivo. The conditions noted are these: 10 days, 1000 mg/kg of oral administration. From the text:
Further, DFA, an effective component of the invention, has no problem in its safety.

Data set [10] deals with serum osteocalcin. Put plainly: Bone formation in human: serum osteocalcin, DFA III with calcium carbonate (Example 5). Type of data set: in vivo. Conditions: 1 g DFA III and 0.25 g calcium carbonate 3 times a day for 2 weeks vs calcium carbonate alone; fourteen healthy adult males; FIG. 5. The procedure:
Fourteen healthy adult males were administered with 1 g of DFA III and 0.25 g of calcium carbonate or 0.25 g of placebo (calcium carbonate) 3 times a day for 2 weeks to study the change in serum osteocalcin concentration.

SMILES strings stand for the structures. Several values for one entry are separate records, joined by “and”; a condition that tells them apart may be missing. Equal values may be shown once.

Take `OC[C@@H](O)[C@@H](O)[C@H](O)[C@@H](O)CO` [sorbitol]: the “acid production (change with time in pH of reaction mixture)” value in data set [1] was “almost no acid”.
With `OC[C@H]1O[C@@]2(CO[C@]3(CO)O[C@H](CO)[C@@H](O)[C@@H]3O2)[C@@H](O)[C@@H]1O` [DFA III, difructose anhydride III], the “Average daily urine volume” value in [2] (1 g/day DFA III granular food product with water for 1 week, individual subjects A-F, healthy males) was 2600 mL and 2950 mL and 2560 mL and 2850 mL and 3010 mL and 2050 mL. In addition, in data set [2] (1 g/day for 1 week), the abnormal subjective findings result was “no abnormal subjective findings”. Further, the “average daily urine volume, first vs second test period” value in data set [2] (all individual subjects, DFA III 1 g/day vs sugar 1 g/day) is given as “evidently greater”. In data set [2] (first test period (DFA III) vs second test period (sugar)), the “biochemical blood tests (liver function, renal function, blood pressure, blood cell counts, total Chol, TG)” value is given as “the same”. In addition, the “Mg absorption (net rate, mucous to serous membrane side)” value in [3] was “evidently increased”. Further, in the data set with serum osteocalcin [4], the “level of osteocalcin (serum), change” value is given as “increased more”. Also, in [5], the “Feeling of defecation: Much better (number of subjects)” value is listed as 23, the “Feeling of defecation: No change (number of subjects)” value is recorded as 0, the “Feeling of defecation: Slightly better (number of subjects)” value came out at 27 and the “Feeling of defecation: Slightly worse (number of subjects)” value was 0. Also, in data set [5], the “Feeling of defecation: Worse (number of subjects)” value was determined as 0; the “Stool properties, change observed: Constipation (worse after ingestion; number of subjects)” value is reported as 0; the “Stool properties, change observed: Normal stool (number of subjects)” value is 39; the “Stool properties, change observed: Soft stool (number of subjects)” value is reported as 7. Also, in [5], the “Stool properties, change observed: Solid stool (number of subjects)” value amounted to 3; the “Stool properties: No change (number of subjects)” value came out at 0; the “Stool properties, change observed: Diarrhea (number of subjects)” value worked out at 0. Moreover, the “acid production (change with time in pH of reaction mixture)” value in [1] is “almost no acid”. Moreover, the “level of osteocalcin, change by ingestion” value with serum osteocalcin [6] (no added calcium) was “increased”. Further, the “Serum osteocalcin concentration, After ingestion” value in the data set on serum osteocalcin [6] (23 healthy adults on normal diet, Average ± SD) turned out to be 5.7 ± 1.5 ng/mL. In addition, in the data set on serum osteocalcin [6] (23 healthy adults on normal diet, Average ± SD, *p < 0.1), the “Serum osteocalcin concentration, Before ingestion” value was 7.0 ± 2.0* ng/ml. For the same compound, the “Cu absorption (net rate, mucous to serous membrane side)” value in [7] is listed as “evidently increased”. Further, the “Zn absorption (net rate, mucous to serous membrane side)” value in [8] is “evidently increased”. The “acid production (change with time in pH of reaction mixture)” value in data set [9] is recorded as “almost no acid was produced”. For the same compound, the “acute toxicity (death)” value in the data set with mice was “no death”. Besides, the “level of osteocalcin (serum), change” value in the data set with serum osteocalcin [10] is given as “increased more”.
As for `OC[C@H]1O[C@@](CO)(O[C@H]2O[C@H](CO)[C@@H](O)[C@H](O)[C@H]2O)[C@@H](O)[C@@H]1O` [sugar, reference compound], the “Average daily urine volume” value in [2] (1 g/day sugar with water for 1 week after 1 week washout, same subjects A-F) is 1620 mL and 1760 mL and 1650 mL and 1250 mL and 1850 mL and 1520 mL.
As to `OC[C@H]1O[C@H](OCC2O[C@@H](O)[C@H](O)[C@@H](O)[C@@H]2O)[C@H](O)[C@@H](O)[C@H]1O` (stereo partly shown) [melibiose], in data set [5], the “Feeling of defecation: Much better (number of subjects)” value is recorded as 22, the “Feeling of defecation: No change (number of subjects)” value was 0, the “Feeling of defecation: Slightly better (number of subjects)” value was determined as 28 and the “Feeling of defecation: Slightly worse (number of subjects)” value is given as 0. Moreover, in data set [5], the “Feeling of defecation: Worse (number of subjects)” value was determined as 0; the “Stool properties, change observed: Constipation (worse after ingestion; number of subjects)” value is listed as 0; the “Stool properties, change observed: Normal stool (number of subjects)” value was found to be 40; the “Stool properties, change observed: Soft stool (number of subjects)” value is recorded as 8. For the same compound, in data set [5], the “Stool properties, change observed: Solid stool (number of subjects)” value worked out at 2; the “Stool properties: No change (number of subjects)” value came to 0; the “Stool properties, change observed: Diarrhea (number of subjects)” value is 0.
Turning to `OC[C@@H](O)[C@H](O)[C@@H](O)CO` [xylitol], the “acid production (change with time in pH of reaction mixture)” value in data set [1] is “almost no acid”.
Take `OC[C@H]1O[C@@](CO)(O[C@H]2O[C@H](CO)[C@@H](O)[C@H](O)[C@H]2O)[C@@H](O)[C@@H]1O` [sucrose]: the “acid production (change with time in pH of reaction mixture)” value in data set [1] is “evidently lowered the pH”.
For the compound `OC[C@H]1O[C@H](OC[C@H]2OC(O)(CO)[C@@H](O)[C@@H]2O)[C@H](O)[C@@H](O)[C@@H]1O` (stereo partly shown) [palatinose, reference compound], the “acid production (change with time in pH of reaction mixture)” value is given as “almost no acid” in data set [1] and “acid was produced” in [9].

For the origin of these results see patent US7754701B2, “Difructose anhydride-containing composition and use thereof” (Fancl Corporation, priority 2002, dated 2010).
